Data taken from patent publication US20080188540A1, “PHARMACEUTICAL COMPOSITIONS CONTAINING SUBSTITUTED INDOLE ACID DERIVATIVES AS INHIBITORS OF PLASMINOGEN ACTIVATOR INHIBITOR-1 (PAI-1)” (Wyeth, priority 2007, published 2008).
In brackets after ≈: the same amount, converted by molar mass. Several values for one entry are separate records, joined by “and”; a condition that tells them apart may be missing. Equal values may be shown once. Entries after “also recorded” stand apart in the source; their conditions may differ. Read-outs that look alike come from different tables or passages of the source.

Assays:
[1] = Solubility profile (free acid in HCl/NaOH solution, centrifugation, supernatant assayed by HPLC); format: physicochemical
Description: In some embodiments, the [1-(4-tert-Butylbenzyl)-5-(3-methylphenyl)-1H-indol-3-yl](oxo)acetic acid used with the composition of the invention is micronized.

[2] = Bioavailability of three formulations, single oral gavage dose, plasma pharmacokinetics; format: in vivo; settings: Formula C, fasted male dogs, individual dogs and Mean; for Plasma concentration: oral 300 mg/kg
Method: Three formulations were evaluated for the bioavilability of [1-(4-tert-butylbenzyl)-5-(3-methylphenyl)-1h-indol-3-yl](oxo)acetic acid in male dogs. Following a single oral (gavage, 300 mg/kg) dose of [1-(4-tert-butylbenzyl)-5-(3-methylphenyl)-1h-indol-3-yl](oxo)acetic acid, blood samples were drawn at 0 (predose), 0.25, 0.5, 1, 2, 3, 4, 6, 8, 10, 12, 24 and 30 hours. The pharmacokinetic parameters, AUC, Cmax, tmax and t1/2, were determined for each dog, and descriptive statistics were calculated for comparison among formulations.
Individual plasma concentrations over time after dosing Formula C are tabulated and plotted in Table 2 and FIG. 2 respectively.

Cc1cccc(-c2ccc3c(c2)c(C(=O)C(=O)O)cn3Cc2ccc(C(C)(C)C)cc2)c1 [[1-(4-tert-Butylbenzyl)-5-(3-methylphenyl)-1H-indol-3-yl](oxo)acetic acid]
solubility enhancement ([1]; 2% Tween80/0.5% methylcellulose solution versus water): 26.000 fold | solubility ([1]; 2% Tween80/0.5% methylcellulose solution, pH 3.5, aqueous with cosolvent or surfactant or cyclodextrin, read-out: solubility): 580 µg/mL (≈ 1360 µM) | solubility ([1]; aqueous HCl/NaOH solution, aqueous buffer, thermodynamic from solid, in the ionized form (so in the source), read-out: aqueous solubility): ~0.25 µg/mL (≈ 0.588 µM) | pH-solubility profile ([1]; free acid in HCl/NaOH solution, 24 hours equilibration (2 hours for pH<4)): Above pH 4, solubility increases with increasing pH up to pH˜8; also recorded: Above pH 8, solubility decreases due to precipitation of the sodium salt | aqueous solubility ([1]; upon ionization in aqueous media): approximately 24 uG/mL | solubility at 24 h ([1]; water, thermodynamic from solid, neutral pH 6.9): 24 µg/mL (≈ 56.4 µM) | Plasma concentration ([2]; 0.25 hours after dose): 2200 ng/mL and 3390 ng/mL and 3290 ng/mL | Plasma concentration ([2]; 0.5 hours after dose): 7500 ng/mL and 10400 ng/mL and 9190 ng/mL | Plasma concentration ([2]; 1 hour after dose): 18100 ng/mL and 21100 ng/mL and 20000 ng/mL | Plasma concentration ([2]; 2 hours after dose): 26300 ng/mL and 34700 ng/mL and 34100 ng/mL | Plasma concentration ([2]; 4 hours after dose): 29300 ng/mL and 31900 ng/mL and 46600 ng/mL | Plasma concentration ([2]; 6 hours after dose): 26900 ng/mL and 30300 ng/mL and 48000 ng/mL | Plasma concentration ([2]; 8 hours after dose): 26500 ng/mL and 24000 ng/mL and 37600 ng/mL | Plasma concentration ([2]; 10 hours after dose): 25300 ng/mL and 40100 ng/mL and 15900 ng/mL and 28200 ng/mL | Plasma concentration ([2]; 12 hours after dose): 19700 ng/mL and 43600 ng/mL and 12400 ng/mL and 22300 ng/mL | Plasma concentration ([2]; 24 hours after dose): 4720 ng/mL and 25900 ng/mL and 2410 ng/mL and 21900 ng/mL | Plasma concentration ([2]; 30 hours after dose): 2610 ng/mL and 15200 ng/mL and 1240 ng/mL and 10600 ng/mL | concentration at 0.25 h ([2]; male, dog, in vivo, po, 300 mg/kg, 0.25 hours after dose): 2330 ng/mL | concentration at 0.5 h ([2]; male, dog, in vivo, po, 300 mg/kg, 0.5 hours after dose): 8190 ng/mL | concentration at 1 h ([2]; male, dog, in vivo, po, 300 mg/kg, 1 hour after dose): 16700 ng/mL | concentration at 2 h ([2]; male, dog, in vivo, po, 300 mg/kg, 2 hours after dose): 30000 ng/mL | concentration at 4 h ([2]; male, dog, in vivo, po, 300 mg/kg, 4 hours after dose): 43000 ng/mL | concentration at 6 h ([2]; male, dog, in vivo, po, 300 mg/kg, 6 hours after dose): 39400 ng/mL | concentration at 8 h ([2]; male, dog, in vivo, po, 300 mg/kg, 8 hours after dose): 31900 ng/mL
